The text below walks through data of ChEMBL document CHEMBL5370626, “Targeting the Subpocket Enables the Discovery of Thiadiazole-Pyridazine Derivatives as Glutaminase C Inhibitors” (ACS Med Chem Lett, 2023).

A word on the clearance: it is a measure of how efficiently the substance is removed, as volume per time. The AUC(0-t) is the area under the concentration-time curve up to a stated or last time point. A high value points to more exposure. For orientation: AUC(0-inf) means the area under the concentration-time curve extrapolated to infinity. The term Tmax denotes the time from dosing to the highest level. For orientation: MRT last means the average time that molecules of a dose stay in the body.

Active and inactive are the calls of the source. No cut-off for these calls is given here.

The target in data set [1] is T1, Glutaminase kidney isoform, mitochondrial (Homo sapiens) (UniProt O94925).
T1 sequence (whole entry): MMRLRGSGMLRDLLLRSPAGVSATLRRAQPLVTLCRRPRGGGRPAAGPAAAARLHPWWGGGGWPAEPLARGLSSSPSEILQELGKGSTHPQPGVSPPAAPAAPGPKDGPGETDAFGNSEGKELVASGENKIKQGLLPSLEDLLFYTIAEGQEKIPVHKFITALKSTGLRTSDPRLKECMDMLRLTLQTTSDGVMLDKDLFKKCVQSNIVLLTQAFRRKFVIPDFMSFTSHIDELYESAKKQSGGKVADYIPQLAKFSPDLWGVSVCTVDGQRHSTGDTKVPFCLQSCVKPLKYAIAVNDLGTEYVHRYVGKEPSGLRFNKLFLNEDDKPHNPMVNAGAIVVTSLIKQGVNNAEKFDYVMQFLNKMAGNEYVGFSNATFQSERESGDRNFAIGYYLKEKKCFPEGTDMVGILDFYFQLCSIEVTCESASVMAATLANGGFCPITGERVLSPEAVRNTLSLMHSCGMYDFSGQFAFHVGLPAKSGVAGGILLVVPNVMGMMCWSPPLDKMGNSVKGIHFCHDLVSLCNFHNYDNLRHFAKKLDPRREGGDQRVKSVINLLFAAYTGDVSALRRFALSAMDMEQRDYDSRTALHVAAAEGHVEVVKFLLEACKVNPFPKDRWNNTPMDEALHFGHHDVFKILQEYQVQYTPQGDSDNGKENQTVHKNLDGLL
As to the kind of experiment: Inhibition of human GAC in A549 cells assessed as reduction in glutamate level at 100 to 1000 nM incubated for 16 hrs by colorimetric assay. In kind it is cell-based. The following applies: dose 100-1000 nM.

The target in data set [2] is Voltage-dependent L-type calcium channel subunit alpha-1C (Homo sapiens, UniProt Q13936). Briefly: Inhibition of Cav1.2 channel (unknown origin) incubated for 30 mins by Fluo-4 staining based FLIPR assay. It is filed as toxicity. As to conditions: 0.5 h.
The subject of data set [3] is A549. As to the kind of experiment: Antitumor activity against human A549 cells xenografted in Balb/c nude mouse assessed as tumor growth inhibition at 100 mg/kg, po administered once daily 24 days relative to control. In kind it is functional. The following applies: A549, 576 h, time 24 day, read-out: TGI.
The nature of data set [4]: Clearance in Sprague-Dawley rat plasma at 10 mg/kg, iv measured up to 48 hrs by LC-MS/MS analysis. In kind it is ADME, organism-based.
The nature of data set [5]: AUC(0 to t) in Sprague-Dawley rat plasma at 100 mg/kg, po measured up to 48 hrs by LC-MS/MS analysis. In kind it is ADME, organism-based. Also noted: dose 100 mg/kg, time < 48 hrs, route po.
Data set [6] in a line: AUC(0 to infinity) in Sprague-Dawley rat plasma at 100 mg/kg, po measured up to 48 hrs by LC-MS/MS analysis. It is filed as ADME, organism-based. Also noted: dose 100 mg/kg, time < 48 hrs, route po.
Data set [7] in a line: Tmax in Sprague-Dawley rat plasma at 100 mg/kg, po measured up to 48 hrs by LC-MS/MS analysis. In kind it is ADME, organism-based.
The nature of data set [8]: Tmax in Sprague-Dawley rat plasma at 10 mg/kg, iv measured up to 48 hrs by LC-MS/MS analysis. It is filed as ADME, organism-based.
Data set [9] in a line: MRT(0 to t) in Sprague-Dawley rat plasma at 10 mg/kg, iv measured up to 48 hrs by LC-MS/MS analysis. In kind it is ADME, organism-based.
A short description of data set [10]: AUC(0 to t) in Sprague-Dawley rat plasma at 10 mg/kg, iv measured up to 48 hrs by LC-MS/MS analysis. It is filed as ADME, organism-based. Also noted: dose 10 mg/kg, time < 48 hrs, route iv.

Chain of Voltage-dependent L-type calcium channel subunit alpha-1C (Q13936 whole entry): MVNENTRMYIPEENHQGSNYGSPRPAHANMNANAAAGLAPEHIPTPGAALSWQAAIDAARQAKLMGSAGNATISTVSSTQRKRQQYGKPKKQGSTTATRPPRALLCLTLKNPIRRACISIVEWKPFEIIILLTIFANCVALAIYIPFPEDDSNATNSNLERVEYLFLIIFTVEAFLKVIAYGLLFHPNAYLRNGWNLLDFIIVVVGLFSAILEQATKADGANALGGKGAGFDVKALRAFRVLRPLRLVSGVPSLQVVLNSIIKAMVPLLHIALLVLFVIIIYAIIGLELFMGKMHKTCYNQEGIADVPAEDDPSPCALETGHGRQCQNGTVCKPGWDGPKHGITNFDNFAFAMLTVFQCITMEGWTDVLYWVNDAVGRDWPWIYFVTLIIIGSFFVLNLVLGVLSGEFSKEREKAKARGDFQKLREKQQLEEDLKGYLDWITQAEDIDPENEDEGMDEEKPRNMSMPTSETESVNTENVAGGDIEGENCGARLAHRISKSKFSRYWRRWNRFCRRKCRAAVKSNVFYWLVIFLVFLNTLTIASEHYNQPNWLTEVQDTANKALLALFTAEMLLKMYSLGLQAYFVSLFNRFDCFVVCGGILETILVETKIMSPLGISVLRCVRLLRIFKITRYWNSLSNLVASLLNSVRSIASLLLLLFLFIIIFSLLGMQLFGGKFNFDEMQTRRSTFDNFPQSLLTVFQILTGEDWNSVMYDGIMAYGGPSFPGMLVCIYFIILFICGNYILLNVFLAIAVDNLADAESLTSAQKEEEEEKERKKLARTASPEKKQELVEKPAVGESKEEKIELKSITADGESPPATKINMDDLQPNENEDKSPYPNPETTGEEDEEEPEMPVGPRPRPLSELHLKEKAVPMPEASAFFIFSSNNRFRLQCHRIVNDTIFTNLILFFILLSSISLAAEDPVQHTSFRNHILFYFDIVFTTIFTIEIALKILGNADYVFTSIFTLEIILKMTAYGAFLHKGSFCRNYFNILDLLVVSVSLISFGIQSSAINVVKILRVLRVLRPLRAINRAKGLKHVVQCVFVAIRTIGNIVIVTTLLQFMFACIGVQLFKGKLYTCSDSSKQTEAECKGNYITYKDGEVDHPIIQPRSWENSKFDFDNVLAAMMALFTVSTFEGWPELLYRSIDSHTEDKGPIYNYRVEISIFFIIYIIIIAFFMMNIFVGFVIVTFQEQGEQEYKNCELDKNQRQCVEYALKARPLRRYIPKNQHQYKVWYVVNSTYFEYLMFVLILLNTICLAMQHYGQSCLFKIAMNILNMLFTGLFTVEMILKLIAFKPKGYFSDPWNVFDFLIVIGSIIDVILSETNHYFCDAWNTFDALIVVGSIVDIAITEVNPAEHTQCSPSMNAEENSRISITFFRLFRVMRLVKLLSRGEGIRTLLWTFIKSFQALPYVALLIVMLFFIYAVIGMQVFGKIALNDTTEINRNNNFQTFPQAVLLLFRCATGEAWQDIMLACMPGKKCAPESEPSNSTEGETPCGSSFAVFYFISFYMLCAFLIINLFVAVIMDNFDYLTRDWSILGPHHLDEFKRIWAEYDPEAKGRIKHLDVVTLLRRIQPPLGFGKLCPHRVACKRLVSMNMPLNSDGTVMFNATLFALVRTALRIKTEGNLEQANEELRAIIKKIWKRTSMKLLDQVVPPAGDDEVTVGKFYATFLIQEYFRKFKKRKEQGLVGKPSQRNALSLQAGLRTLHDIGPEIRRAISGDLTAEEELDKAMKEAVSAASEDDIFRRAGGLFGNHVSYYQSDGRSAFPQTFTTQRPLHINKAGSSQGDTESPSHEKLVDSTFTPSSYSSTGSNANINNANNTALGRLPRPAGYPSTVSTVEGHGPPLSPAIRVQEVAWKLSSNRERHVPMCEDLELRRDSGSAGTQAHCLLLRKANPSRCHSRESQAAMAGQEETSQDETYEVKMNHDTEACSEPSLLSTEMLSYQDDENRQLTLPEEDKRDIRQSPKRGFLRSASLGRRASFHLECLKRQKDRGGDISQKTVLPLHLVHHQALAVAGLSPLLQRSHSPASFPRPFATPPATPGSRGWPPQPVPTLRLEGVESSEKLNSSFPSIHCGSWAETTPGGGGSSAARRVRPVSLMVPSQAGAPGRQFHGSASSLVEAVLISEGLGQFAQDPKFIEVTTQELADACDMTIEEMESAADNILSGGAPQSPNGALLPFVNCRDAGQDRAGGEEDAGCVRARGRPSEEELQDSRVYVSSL

In the case of `O=C(Cc1cccc(Oc2ccccc2)c1)Nc1nnc(N[C@@H]2CCN(c3cccnn3)C2)s1`, in [1], the inhibition entry is “Active”. In data set [2], the INH is 21.71 µM. Further, the inhibition in vivo at 100 mg/kg in data set [3] was determined as 51.4%. Besides, in [4], the clearance was 2.18 L/h/kg. For the same compound, the AUC(0-t) at 48 h is 2.31 µg·h/mL in data set [5] and 4.63 µg·h/mL in data set [10]. Further, the AUC(0-inf) in [6] turned out to be 2.33 µg·h/mL. The Tmax in [7] was found to be 2 h; in data set [8], 1.98 min. Moreover, the MRT last at 48 h in data set [9] was 1.52 h.
